Data: patent publication US7569582B2, “Aminotropane derivatives, preparation thereof and therapeutic use thereof” (Sanofi-Aventis, priority 2004, dated 2009)
Where a name gives a salt, the structure may show the parent alone.

Tests used:
human MC4 receptor [1] = molecular target: T1, human MC4 receptor (Homo sapiens, UniProt P32245); assay: Affinity assay: displacement of [125I]-[Nle4,D-Phe7]-α-MSH binding to membranes of CHO-K1 cells expressing hMC4 (SPA); conditions: displacement of specific radioligand binding by 50%; radioligand 100 pM; read-out: IC50 with respect to the MC4 receptor
T1 construct: host or cells: CHO-K1
T1 sequence (P32245 whole entry): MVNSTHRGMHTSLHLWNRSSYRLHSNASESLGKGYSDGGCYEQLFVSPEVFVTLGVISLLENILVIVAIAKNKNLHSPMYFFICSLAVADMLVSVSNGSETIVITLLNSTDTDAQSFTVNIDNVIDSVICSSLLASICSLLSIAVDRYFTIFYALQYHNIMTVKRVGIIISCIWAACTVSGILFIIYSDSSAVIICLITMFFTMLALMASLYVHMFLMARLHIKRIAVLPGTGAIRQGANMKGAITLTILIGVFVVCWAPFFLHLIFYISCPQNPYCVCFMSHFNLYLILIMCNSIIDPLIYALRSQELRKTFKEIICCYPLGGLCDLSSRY
Method: This affinity assay is carried out by measuring the binding of [^125I]-[Nle^4-D-Phe^7]-[…]-MSH to cell membranes. The displacement of this radioligand is used to identify inhibitors of the specific binding to recombinant melanocortin receptors.
For this assay, membranes prepared from CHO-K1 cells expressing the human MC4 receptor at high density (Euroscreen) or membranes, that were purchased (Perkin Elmer Life Sciences, Receptor Biology), of HEK-293 cells expressing hMC3 receptors were used. CHO-K1 cells transfected with the hMC4 receptor gene (Euroscreen) are seeded into DMEM/Nutrient Mix F12 culture medium containing 10% foetal calf serum (Biowhittaker), 1% sodium pyruvate, 1% L-glutamine, 1% non-essential amino acids, 0.4 mg/ml geneticin (G418) and 0.5% PenStrep, these products being provided by Gibco/BR1, except the calf serum. At 80% confluency, the cells are scraped off and the cell pellets are frozen at −80° C.
A tube of cells (approximately 70×10^6 cells) is thawed on ice and resuspended in 10 ml of binding buffer [25 mM HEPES, pH 7.0, 1 mM MgCl2, 1.5 mM CaCl2, 100 mM NaCl, 1 mM 1,10-phenanthroline and 1 tablet of Complete^TR (protease inhibitor from Roche) in 50 ml of buffer] using a polytron for 20 seconds. […] The nonspecific binding is defined by NDP-[…]MSH at 10^−7 M. The total binding is measured by the number of counts per minute in the presence of the radioligand alone. […]

human MC3 receptor = molecular target: T2, human MC3 receptor (Homo sapiens, UniProt P41968); assay: Functional agonist assay: cAMP formation in CHO(dhfr-) cells expressing the human MC3 receptor; type: cell-based; conditions: 1 hour incubation, 50% of the maximum stimulation obtained with the compound, read-out: EC50 with respect to the MC3 receptor
T2 construct: expressed in transfected cells; host or cells: CHO(dhfr-)
T2 sequence (P41968 whole entry): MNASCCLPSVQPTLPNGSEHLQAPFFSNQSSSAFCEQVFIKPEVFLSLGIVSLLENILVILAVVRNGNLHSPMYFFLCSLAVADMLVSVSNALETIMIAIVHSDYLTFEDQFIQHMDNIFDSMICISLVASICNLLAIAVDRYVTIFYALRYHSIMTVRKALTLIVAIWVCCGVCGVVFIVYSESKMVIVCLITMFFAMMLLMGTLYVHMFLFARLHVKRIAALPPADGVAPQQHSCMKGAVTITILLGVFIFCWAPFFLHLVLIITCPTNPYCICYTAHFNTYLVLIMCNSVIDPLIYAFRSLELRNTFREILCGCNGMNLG
Method: (§1) A functional assay is used to differentiate between the agonist activity and the antagonist activity. For this, the formation of cyclic adenosine monophosphate (cAMP) generated by activation of the MC3 receptor or of the MC4 receptor is assayed.
CHO(dhfr-) cells expressing the human MC3 receptor are seeded into MEM Eagle culture medium (Sigma) containing 10% of dialysed calf serum, 1% L-glutamine, 1% sodium pyruvate, 20 mg/500 ml L-proline, 0.3 mg/ml Geneticin and 0.5% PenStrep, these products being provided by Gibco/BRI, except for the dialysed calf serum (Cambrex) and the L-proline (Sigma).
(§2) The compounds to be tested (diluted in 10% DMSO), in an amount of 10 μl at a concentration of 10 times the final concentration, are added to the plates of cells (final volume=100 μl/well). After incubation for 1 hour (37° C., 5% CO2), the amount of cAMP is assayed using Tropix kits (Appelera) according to the supplier's documentation. The intrinsic activity of the compounds is calculated by comparing the stimulation of cAMP by these compounds to the stimulation induced by 30 nM of NDP[…]MSH (maximum of 100%). The EC50 value for the compounds corresponds to the concentration which produces 50% of the maximum stimulation obtained with this compound.

human MC4 receptor [2] = molecular target: T1, human MC4 receptor; assay: Functional agonist assay: cAMP formation in CHO-K1 cells expressing the human MC4 receptor; type: cell-based; conditions: 1 hour incubation, 50% of the maximum stimulation obtained with the compound, read-out: EC50 with respect to the MC4 receptor
Method: as §1
CHO-K1 cells, expressing the human MC4 receptor at a moderate density (Euroscreen), are seeded into DMEM/Nutrient Mix F12 culture medium (Gibco/BR1) containing 10% of foetal calf serum, 0.5% sodium pyruvate, 1% L-glutamine, 1% non-essential amino acids, 200 mg/l hygromycin B and 0.5% PenStrep, these products being provided by Gibco/BR1, except the calf serum (Biowhittaker) and hygromycin B (Sigma).
as §2

Row | melting point [°C] | Compound | other results
1 |  | CCN(CC)C(=O)N(C1CCCCC1)C1CC2CCC(C1)N2C(=O)[C@@H](Cc1ccc(Cl)cc1)NC1CCC(N)CC1 (stereo partly drawn) [compound 3, N-{8-[N-(4-aminocyclohexyl)-4-chloro-D-phenylalanyl]-8-azabicyclo[3.2.1]oct-3-yl}-N-cyclohexyl-N′,N′-diethylurea] | IC50 (human MC4 receptor [1]): 0.28 µM; EC50 (human MC3 receptor): 0.33 µM; EC50 (human MC4 receptor [2]): 0.028 µM
2 | 105 | CCN(CC)C(=O)N(C1CCCCC1)C1CC2CCC(C1)N2C(=O)[C@@H](Cc1ccc(Cl)cc1)NCCN (stereo partly shown) (as salt: HCl) | 
3 | 215 | CCN(CC)C(=O)N(C1CCCCC1)C1CC2CCC(C1)N2C(=O)[C@@H](Cc1ccc(Cl)cc1)NCCCN (stereo partly shown) (as salt: HCl) | 
4 | > 200 | CCN(CC)C(=O)N(C1CCCCC1)C1CC2CCC(C1)N2C(=O)[C@@H](Cc1ccc(Cl)cc1)NC1CCSC1 (stereo partly shown) (as salt: HCl) | 
5 | 220 | CCN(CC)C(=O)N(C1CCCCC1)C1CC2CCC(C1)N2C(=O)[C@@H](Cc1ccc(Cl)cc1)NC1CCNC1 (stereo partly shown) (as salt: HCl) | 
6 | 132 | CCN(CC)C(=O)N(C1CCCCC1)C1CC2CCC(C1)N2C(=O)[C@@H](Cc1ccc(Cl)cc1)NC(C)/C=N/O (stereo partly shown) (as salt: HCl) | 
7 | 170 | CCN(CC)C(=O)N(C1CCCCC1)C1CC2CCC(C1)N2C(=O)[C@@H](Cc1ccc(Cl)cc1)NC1CNC1 (stereo partly shown) (as salt: HCl) | 

Row | Compound | melting point [°C] | other results
8 | CCN(CC)C(=O)N(C1CCCCC1)C1CC2CCC(C1)N2C(=O)[C@@H](Cc1ccc(Cl)cc1)NC1CCC(N)CC1 (stereo partly drawn) (as salt: HCl) [compound 3, N-{8-[N-(4-aminocyclohexyl)-4-chloro-D-phenylalanyl]-8-azabicyclo[3.2.1]oct-3-yl}-N-cyclohexyl-N′,N′-diethylurea] | 208 | 
